The values that follow come from patent publication US20080107719A1, “Transdermal drug delivery system” (priority 2006, published 2008).

Converted amounts (≈) assume the structure as drawn. Where two headings read alike, the source gives them in different places.

A short description of one series: Pka determination. Type of series: physicochemical.
Series [1] is described as follows: Hygroscopicity (moisture sorption). Type of series: physicochemical.
Series [2] is described as follows: Solubility in various PH medium. It is filed as physicochemical. The conditions noted are these: media of various pH, aqueous buffer.
Series [3] can be described thus: Stability in aqueous (PH1 and 14) tested by 3% hydrogen peroxide. Type of series: physicochemical.
Series [4] deals with rat. The note with it: cited from earlier work.
The nature of series [5]: Half life (t1/2) in acidic and basic PH conditions. It is filed as physicochemical. The note with it: buffer.
A further series can be described thus: Solubility in PG. Type of series: physicochemical. The conditions noted are these: organic solvent or mixture.
Series [6] relates to rat. The note with it: in vivo; cited from earlier work.

With `CC12CC3CC(C)(C1)CC(N)(C3)C2.Cl` [Memantine HCl], in “Solubility in water” (1% aqueous solution), the “PH of 1% aqueous solution” value is “(PH 5.5-6)”. The molecule further yielded a solubility at 24 hr in “Solubility in water” (water) of 45 mg/mL. The pKa in the series “Pka determination” was determined as 10.5. Moreover, the Hygroscopicity result in series [1] is on record as “Slightly hygroscopic”. The moisture sorption result in series [1] (at 5-95% RH) is on record as “(<1.1% moisture”. The solubility in [2] (in PH 2-8, read-out: Solubility in various PH medium) was greater than 1200 µg/mL. In the series “Log P (Octanol/water)”, the “Log P (Octanol/water)” value is 3.28. For the same molecule, the “Stability in aqueous (PH1 and 14) tested by 3% hydrogen peroxide” value in [3] (PH1 and 14, 3% hydrogen peroxide) was “Stable”. In addition, in series [3] (acidic and basic pH), the “stability in both acidic and basic pH conditions” value was “high stability”.
For Polysorbate80, the “LD50 (Rat-Oral)” value in the series on rat [4] was 34.5 ml/kg bodyweight.
Regarding `Cc1cccc(C(C)c2c[nH]c(=S)[nH]2)c1C` (stereo not drawn) [AGN 203818], the half-life in [5] (pH 1, PH1, read-out: t1/2 (days) PH1 (converted)) was 51 days; in series [5] (pH 11, PH11, read-out: t1/2 (days) PH11 (converted)), 57 days. Also, the solubility was 0.0245 mg/mL (≈ 105 µM) in “Solubility in water” (water); 19.3 to 27.5 µg/mL (≈ 83.1 to 118 µM) in series [2] (in PH1-11, read-out: Solubility (μg/ml) in various PH medium); greater than 5.1 mg/mL in the series “Solubility in PG”. In addition, the pKa in “Pka determination” is 11.3. The same molecule registered a logP in “Log P (Octanol/water)” (octanol/water) of 2.9 to 3.12.
As to `CN1CCCC1=O` [N-methylpyrrolidone], the “LD50 (skin)” value in the series on rat [6] is reported as 7 g/KG bodyweight.

For orientation: pKa means the pH at which an ionisable group is half protonated. Read a high pKa as a weaker acid or stronger base. As usually defined, the logP is a log measure of how a compound divides between an organic and an aqueous phase.
